Test results taken from patent EP4741392A1, “1H-PYRAZOLO[4,3-C]PYRIDINE COMPOUND, AND COMPOSITION THEREOF AND USE THEREOF” (Shenzhen TargetRx Co., Ltd., priority 2023, dated 2025).
Like-named read-outs stand apart in the source and are kept apart here.

Key:
TMD8 cells = assay: Viability assay of TMD8 cells (CTG); type: cell-based; details: cell viability, 120 hours
Protocol: (§1) The in vitro antiproliferative activity of the compounds of the present disclosure against TMD8 cells and OCI-LY10 cells was assayed using CTG (Cell Titer-Glo) luminescent cell viability assay. The specific assay methods were as follows. • a) TMD8 cells were cultured at 37 °C and 5% CO2 in complete medium [RPMI 1640 (supplier Gibco, product number 22400-089) + 10% FBS (supplier Gibco, product number 10091-148) + 1% P/S (supplier Hyclone, product number SV30010)]; OCI-LY10 cells were cultured at 37 °C and 5% CO2 in medium [IMDM (supplier Gibco, product number 31980-030) + 20% FBS (supplier Gibco, product number 10091-148) + 1% P/S (supplier Hyclone, product number SV30010) + 0.05 mM 2-Mercaptoethanol (supplier Sigma, product number M6250)]. • b) Cells in the logarithmic growth phase were harvested, and the total cell count and viable cell count were determined using a Vi-cell cell counter (supplier: BECKMAN COULTER, product number 2785198). • c) Cell density was adjusted using complete culture medium. Then, the cells were inoculated at 1500 cells per well in a 384-well cell culture plate (supplier Greiner, product number 781090). • d) The cells in the 384-well plate were cultured at 37 °C and 5% CO2 overnight. • e) A 10-fold drug solution was prepared, and then the serially diluted compound was transferred to the corresponding assay wells of the 384-well cell plate so that the final assay concentration was 1000 nM, with 9 concentrations, 3-fold dilutions, and triplicates for each drug concentration. • f) The cells in the 384-well plate with the drug added were cultured at 37 °C and 5% CO2 for another 120 hours. • g) The cells were removed from the incubator, and allowed to equilibrate at room temperature for 30 minutes. The cell state and compound solubility were observed under a microscope. • h) An equal volume of CellTiterGlo solution (supplier Promega, product number G7573) was added to each well, and the plate was incubated at room temperature for 30 minutes. • i) Then, the luminescent signal value was detected on an EnVision instrument (supplier PerkinElmer, product number 2441715).
(§2) The data were analyzed using XL-fit software (supplier: ID Business Solutions Ltd., software version: XL fit 5.5.0.5). Nonlinear regression was performed using X=Log(X), and the X values were transformed using a four-parameter Logistic model 205, from which the IC50 values were calculated. Inhibition rate % = (Max−samplevalue)/Max*100.(Max:DMSOnegativecontrol) [formula]

OCI-LY10 cells = assay: Viability assay of OCI-LY10 cells (CTG); type: cell-based; details: cell viability, read-out: OCl-Ly10
Protocol: as §1, §2

Question: What does the source list for `COc1ccc(F)cc1C(=O)NCc1ccc(-c2nc(C(C)C(F)(F)F)cc3[nH]nc(N)c23)cc1` (single isomer, unassigned) [Example 3, N-(4-(3-amino-6-(1,1,1-trifluoropropan-2-yl)-1H-pyrazolo[4,3-c]pyridin-4-yl)benzyl)-5-fluoro-2-methoxybenzamide]?
Answer: IC50 (TMD8 cells): 5 to 10 nM; IC50 (OCI-LY10 cells; 120 hours): 10 to 50 nM

Question: How did the IC50 (TMD8 cells; Homo sapiens) turn out when `COc1ccc(F)cc1C(=O)NCc1ccc(-c2nc([C@H]3CC[C@H](CO)CC3)cc3[nH]nc(N)c23)cc1` [Example 117, N-(4-(3-amino-6-((1r,4r)-4-(hydroxymethyl)cyclohexyl)-1H-pyrazolo[4,3-c]pyridin-4-yl)benzyl)-5-fluoro-2-methoxybenzamide] was run?
Answer: ≤ 5 nM

Question: And the IC50 (OCI-LY10 cells; Homo sapiens, OCI-Ly10, 120 h)?
Answer: ≤ 5 nM

Question: How did the IC50 (TMD8 cells; Homo sapiens) turn out when `C=CC(=O)N1CCCC(c2cc3[nH]nc(N)c3c(-c3ccc(CNC(=O)c4cc(F)ccc4OC)cc3)n2)C1` (stereo not shown) [Example 96, N-(4-(6-(1-acryloylpiperidin-3-yl)-3-amino-1H-pyrazolo[4,3-c]pyridin-4-yl)benzyl)-5-fluoro-2-methoxybenzamide] was run?
Answer: ≤ 5 nM

Question: And the IC50 (OCI-LY10 cells; Homo sapiens, OCI-Ly10, 120 h)?
Answer: ≤ 5 nM

Question: How did the IC50 (TMD8 cells; Homo sapiens) turn out when `COc1ccc(F)cc1C(=O)NCc1ccc(-c2nc(C(F)F)c(-c3ncccn3)c3[nH]nc(N)c23)cc1` [Example 85, N-(4-(3-amino-6-(difluoromethyl)-7-(pyrimidin-2-yl)-1H-pyrazolo[4,3-c]pyridin-4-yl)benzyl)-5-fluoro-2-methoxybenzamide] was run?
Answer: ≤ 5 nM

Question: What about the IC50 (OCI-LY10 cells; Homo sapiens, OCI-Ly10, 120 h) of the same molecule?
Answer: 10 to 50 nM

Question: Which IC50 (TMD8 cells) does the source give for `COc1ccc(F)cc1C(=O)NCc1ccc(-c2nc(C(C)C(F)(F)F)c(-c3ncccn3)c3[nH]nc(N)c23)cc1` (single isomer, unassigned) [Example 7-2, N-(4-(3-amino-7-(pyrimidin-2-yl)-6-(1,1,1-trifluoropropan-2-yl)-1H-pyrazolo[4,3-c]pyridin-4-yl)benzyl)-5-fluoro-2-methoxybenzamide] here?
Answer: ≤ 5 nM

Question: And the IC50 (OCI-LY10 cells; 120 hours)?
Answer: ≤ 5 nM

Question: What does the source list for `COc1ccc(F)cc1C(=O)NCc1ccc(-c2nc(C(C)C(F)(F)F)cc3[nH]nc(N)c23)cc1` (single isomer, unassigned) [Example 2, N-(4-(3-amino-6-(1,1,1-trifluoropropan-2-yl)-1H-pyrazolo[4,3-c]pyridin-4-yl)benzyl)-5-fluoro-2-methoxybenzamide]?
Answer: IC50 (TMD8 cells; Homo sapiens): 5 to 10 nM; IC50 (OCI-LY10 cells; Homo sapiens, OCI-Ly10, 120 h): 10 to 50 nM

Question: `COc1ccc(F)cc1C(=O)NCc1ccc(-c2ncc(-c3ccc(S(C)(=O)=O)cn3)c3[nH]nc(N)c23)cc1` [Example 35, N-(4-(3-amino-7-(5-(methylsulfonyl)pyridin-2-yl)-1H-pyrazolo[4,3-c]pyridin-4-yl)benzyl)-5-fluoro-2-methoxybenzamide] was tested. Which IC50 (TMD8 cells; Homo sapiens) did it give?
Answer: ≤ 5 nM

Question: And the IC50 (OCI-LY10 cells; Homo sapiens, OCI-Ly10, 120 h)?
Answer: ≤ 5 nM

Question: `COc1ccc(F)cc1C(=O)NCc1ccc(-c2nc(C(C)C(F)(F)F)c(-c3ccn(C)n3)c3[nH]nc(N)c23)cc1` (single isomer, unassigned) [Example 6-2, N-(4-(3-amino-7-(1-methyl-1H-pyrazol-3-yl)-6-(1,1,1-trifluoropropan-2-yl)-1H-pyrazolo[4,3-c]pyridin-4-yl)benzyl)-5-fluoro-2-methoxybenzamide] was tested. Which IC50 (TMD8 cells) did it give?
Answer: ≤ 5 nM

Question: What about the IC50 (OCI-LY10 cells; 120 hours) of the same molecule?
Answer: ≤ 5 nM

Question: How did the IC50 (TMD8 cells; Homo sapiens) turn out when `COc1ccc(F)cc1C(=O)NCc1ccc(-c2ncc(-c3ccc(F)cn3)c3[nH]nc(N)c23)cc1` [Example 21, N-(4-(3-amino-7-(5-fluoropyridin-2-yl)-1H-pyrazolo[4,3-c]pyridin-4-yl)benzyl)-5-fluoro-2-methoxybenzamide] was run?
Answer: ≤ 5 nM

Question: What about the IC50 (OCI-LY10 cells; Homo sapiens, OCI-Ly10, 120 h) of the same molecule?
Answer: 5 to 10 nM

Question: How did the IC50 (TMD8 cells; Homo sapiens) turn out when `COc1ccc(F)cc1C(=O)NCc1ccc(-c2ncc(-c3ncccn3)c3[nH]nc(N)c23)cc1` [Example 17, N-(4-(3-amino-7-(pyrimidin-2-yl)-1H-pyrazolo[4,3-c]pyridin-4-yl)benzyl)-5-fluoro-2-methoxybenzamide] was run?
Answer: 5 to 10 nM

Question: What about the IC50 (OCI-LY10 cells; Homo sapiens, OCI-Ly10, 120 h) of the same molecule?
Answer: 10 to 50 nM

Question: What does the source list for `COc1ccc(F)cc1C(=O)NCc1ccc(-c2ncc(-c3cnccn3)c3[nH]nc(N)c23)cc1` [Example 18, N-(4-(3-amino-7-(pyrazin-2-yl)-1H-pyrazolo[4,3-c]pyridin-4-yl)benzyl)-5-fluoro-2-methoxybenzamide]?
Answer: IC50 (TMD8 cells; Homo sapiens): 5 to 10 nM; IC50 (OCI-LY10 cells; Homo sapiens, OCI-Ly10, 120 h): 10 to 50 nM

Question: With `COc1ccc(F)cc1C(=O)NCc1ccc(-c2nc(C)c(-c3ncccn3)c3[nH]nc(N)c23)cc1` [Example 84, N-(4-(3-amino-6-methyl-7-(pyrimidin-2-yl)-1H-pyrazolo[4,3-c]pyridin-4-yl)benzyl)-5-fluoro-2-methoxybenzamide] as the molecule, how does the IC50 (TMD8 cells; Homo sapiens) read?
Answer: 5 to 10 nM

Question: And the IC50 (OCI-LY10 cells; Homo sapiens, OCI-Ly10, 120 h)?
Answer: 10 to 50 nM

Question: For `COc1ccc(F)cc1C(=O)NCc1ccc(-c2nc(C3CCSCC3)cc3[nH]nc(N)c23)cc1` [Example 91, N-(4-(3-amino-6-(tetrahydro-2H-thiopyran-4-yl)-1H-pyrazolo[4,3-c]pyridin-4-yl)benzyl)-5-fluoro-2-methoxybenzamide], which IC50 (TMD8 cells; Homo sapiens) is on record?
Answer: ≤ 5 nM

Question: And the IC50 (OCI-LY10 cells; Homo sapiens, OCI-Ly10, 120 h)?
Answer: ≤ 5 nM

Question: With `COc1ccc(F)cc1C(=O)NCc1ccc(-c2ncc(-c3ccc(C(F)(F)F)cn3)c3[nH]nc(N)c23)cc1` [Example 24, N-(4-(3-amino-7-(5-(trifluoromethyl)pyridin-2-yl)-1H-pyrazolo[4,3-c]pyridin-4-yl)benzyl)-5-fluoro-2-methoxybenzamide] as the molecule, how does the IC50 (TMD8 cells; Homo sapiens) read?
Answer: ≤ 5 nM

Question: What about the IC50 (OCI-LY10 cells; Homo sapiens, OCI-Ly10, 120 h) of the same molecule?
Answer: 10 to 50 nM

Question: Which IC50 (TMD8 cells; Homo sapiens) does the source give for `COc1ccc(F)cc1C(=O)NCc1ccc(-c2ncc(-c3ccncn3)c3[nH]nc(N)c23)cc1` [Example 19] here?
Answer: 5 to 10 nM

Question: What about the IC50 (OCI-LY10 cells; Homo sapiens, OCI-Ly10, 120 h) of the same molecule?
Answer: 10 to 50 nM

Question: How did the IC50 (TMD8 cells; Homo sapiens) turn out when `COc1ccc(F)cc1C(=O)NCc1ccc(-c2nc(C(C)C(F)(F)F)c(-c3ccn(C)n3)c3[nH]nc(N)c23)cc1` (single isomer, unassigned) [Example 6-1, N-(4-(3-amino-7-(1-methyl-1H-pyrazol-3-yl)-6-(1,1,1-trifluoropropan-2-yl)-1H-pyrazolo[4,3-c]pyridin-4-yl)benzyl)-5-fluoro-2-methoxybenzamide] was run?
Answer: ≤ 5 nM

Question: And the IC50 (OCI-LY10 cells; Homo sapiens, OCI-Ly10, 120 h)?
Answer: 5 to 10 nM

Question: Which IC50 (TMD8 cells; Homo sapiens) does the source give for `COc1ccc(F)cc1C(=O)NCc1ccc(-c2nc(C(C)C(F)(F)F)c(-c3cc(C)[nH]n3)c3[nH]nc(N)c23)cc1` (stereo not shown) [Example 9, N-(4-(3-amino-7-(5-methyl-1H-pyrazol-3-yl)-6-(1,1,1-trifluoropropan-2-yl)-1H-pyrazolo[4,3-c]pyridin-4-yl)benzyl)-5-fluoro-2-methoxybenzamide] here?
Answer: ≤ 5 nM

Question: What about the IC50 (OCI-LY10 cells; Homo sapiens, OCI-Ly10, 120 h) of the same molecule?
Answer: 5 to 10 nM

Question: How did the IC50 (TMD8 cells; Homo sapiens) turn out when `COc1ccc(F)cc1C(=O)NCc1ccc(-c2ncc(-c3ccccn3)c3[nH]nc(N)c23)cc1` [Example 15, N-(4-(3-amino-7-(pyridin-2-yl)-1H-pyrazolo[4,3-c]pyridin-4-yl)benzyl)-5-fluoro-2-methoxybenzamide] was run?
Answer: ≤ 5 nM

Question: And the IC50 (OCI-LY10 cells; Homo sapiens, OCI-Ly10, 120 h)?
Answer: 5 to 10 nM

Question: Which IC50 (TMD8 cells; Homo sapiens) does the source give for `COc1ccc(F)cc1C(=O)NCc1ccc(-c2nc(C(C)C(F)(F)F)c(-c3ncccn3)c3[nH]nc(N)c23)cc1` (single isomer, unassigned) [Example 7-1, N-(4-(3-amino-7-(pyrimidin-2-yl)-6-(1,1,1-trifluoropropan-2-yl)-1H-pyrazolo[4,3-c]pyridin-4-yl)benzyl)-5-fluoro-2-methoxybenzamide] here?
Answer: ≤ 5 nM

Question: And the IC50 (OCI-LY10 cells; Homo sapiens, OCI-Ly10, 120 h)?
Answer: ≤ 5 nM

Question: `COc1ccc(F)cc1C(=O)NCc1ccc(-c2ncc(-c3ccn(C)n3)c3[nH]nc(N)c23)cc1` [Example 23, N-(4-(3-amino-7-(1-methyl-1H-pyrazol-3-yl)-1H-pyrazolo[4,3-c]pyridin-4-yl)benzyl)-5-fluoro-2-methoxybenzamide] was tested. Which IC50 (TMD8 cells; Homo sapiens) did it give?
Answer: ≤ 5 nM

Question: And the IC50 (OCI-LY10 cells; Homo sapiens, OCI-Ly10, 120 h)?
Answer: ≤ 5 nM
